For assay [1], the system named is TGF-β-stimulated SMAD3 phosphorylation in BEAS-2B cells. The assay can be described thus: Cellular ALK5 potency assay, inhibition of TGF-β stimulated pSMAD3 formation in BEAS-2B cells. It is filed as cell-based. Conditions: Homo sapiens, pSMAD3, TGF-β 10 ng/mL, read-out: BEAS2B pIC50 (converted). Put shortly: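 BEAS-2B cells, HBSS/25 mM HEPES/1% BSA buffer; cpd 1 h, 37 °C; TGF-β 10 ng/mL final, 30 min; lysis, AlphaLISA pSMAD3 read next day. pIC50 vs stimulated no-compound baseline.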

For assay [2], the target named is T1, recombinant human ALK5 (TGF-βR1) protein (Homo sapiens, UniProt P36897).
T1 construct: purchased Life Technologies PR9075A
T1 sequence (P36897 34-503): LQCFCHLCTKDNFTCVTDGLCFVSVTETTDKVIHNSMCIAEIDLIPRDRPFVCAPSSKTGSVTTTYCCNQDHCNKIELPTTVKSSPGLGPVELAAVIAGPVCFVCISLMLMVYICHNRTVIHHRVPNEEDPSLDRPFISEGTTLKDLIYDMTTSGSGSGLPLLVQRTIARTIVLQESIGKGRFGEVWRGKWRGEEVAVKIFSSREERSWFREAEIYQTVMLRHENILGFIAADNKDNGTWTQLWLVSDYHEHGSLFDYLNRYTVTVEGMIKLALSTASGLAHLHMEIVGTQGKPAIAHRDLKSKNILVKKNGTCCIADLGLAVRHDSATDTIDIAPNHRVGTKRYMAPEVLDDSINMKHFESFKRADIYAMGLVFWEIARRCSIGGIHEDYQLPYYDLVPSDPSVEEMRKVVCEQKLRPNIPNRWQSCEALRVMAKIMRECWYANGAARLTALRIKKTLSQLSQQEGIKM
The experiment in a line: Biochemical ALK5 (TGF-βR1) assay to measure pKi (LANCE Ultra ULight kinase assay). The conditions noted are these: apparent pKi, converted from pIC50 by Cheng-Prusoff. Put shortly:
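Cmpd + enzyme, 60 min RT; ATP from 125 μM (5×) stock, 60 min 37 °C; stop 12 mM EDTA/Eu anti-pThr1342 Topo2α Ab (pH 7.0 buffer); TR-FRET 665 nm. DMSO = max, SD-208 = min signal. 4-PL pIC50 → pKi (Cheng-Prusoff).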

As to `Cc1cccc(-c2nccc(Nc3ccnc(Nc4ccc5c(c4)CCCN5)n3)n2)n1` [Compound 492, N4-[2-(6-methyl-2-pyridyl)pyrimidin-4-yl]-N2-(1,2,3,4-tetrahydroquinolin-6-yl)pyrimidine-2,4-diamine], the IC50 in assay [1] was 25.1 to 158 nM. Also, in assay [2], the Ki was 0.398 to 3.16 nM.
In the case of `COC1(C)CN(Cc2ccc(Nc3nccc(Nc4ccnc(-c5cccc(C)n5)n4)n3)cc2)C1` [Compound 493, N2-[4-[(3-methoxy-3-methyl-azetidin-1-yl)methyl]phenyl]-N4-[2-(6-methyl-2-pyridyl)pyrimidin-4-yl]pyrimidine-2,4-diamine], the IC50 in assay [1] is 25.1 to 158 nM. Besides, in assay [2], the Ki was 0.0398 to 0.316 nM.
On the same counts, the results for `Cc1cccc(-c2nccc(Nc3ccnc(Nc4ccc(N5CCN(CC(C)C)CC5)cc4)n3)n2)n1` [Compound 494, N2-[4-(4-isobutylpiperazin-1-yl)phenyl]-N4-[2-(6-methyl-2-pyridyl)pyrimidin-4-yl]pyrimidine-2,4-diamine] are 25.1 to 158 nM and 0.0398 to 0.316 nM.
Take `Cc1cccc(-c2nccc(Nc3ccnc(Nc4ccc(CN5CCCC(C(=O)NCC6CNC6)C5)cc4)n3)n2)n1` (stereo not shown) [Compound 495, N-(azetidin-3-ylmethyl)-1-[[4-[[4-[[2-(6-methyl-2-pyridyl)pyrimidin-4-yl]amino]pyrimidin-2-yl]amino]phenyl]methyl] piperidine-3-carboxamide]: the IC50 in assay [1] is 25.1 to 158 nM. Moreover, the Ki in assay [2] is 0.0398 to 0.316 nM.
Turning to `Cc1cccc(-c2nccc(Nc3ccnc(Nc4ccc(N(C)C5CNC5)cc4)n3)n2)n1` [Compound 496, N2-[4-[azetidin-3-yl(methyl)amino]phenyl]-N4-[2-(6-methyl-2-pyridyl)pyrimidin-4-yl]pyrimidine-2,4-diamine], in assay [1], the IC50 was 25.1 to 158 nM. The Ki in assay [2] was 0.0398 to 0.316 nM.
On to `Cc1cccc(-c2nccc(Nc3ccnc(Nc4cccc(N(C)C(=O)C5CCNCC5)c4)n3)n2)n1` [Compound 497, N-methyl-N-[3-[[4-[[2-(6-methyl-2-pyridyl)pyrimidin-4-yl]amino]pyrimidin-2-yl]amino]phenyl]piperidine-4-carboxamide], for which the IC50 in assay [1] was 200 to 1260 nM. In assay [2], the Ki is 0.0398 to 0.316 nM.
Regarding `Cc1cccc(-c2nc(CC(=O)NCCO)cc(Nc3ccnc(Nc4ccc(N5CCNCC5)cc4)n3)n2)n1` [Compound 498, N-(2-hydroxyethyl)-2-[2-(6-methyl-2-pyridyl)-6-[[2-(4-piperazin-1-ylanilino)pyrimidin-4-yl]amino]pyrimidin-4-yl]acetamide], the IC50 in assay [1] is 200 to 1260 nM. Moreover, the Ki in assay [2] is 0.398 to 3.16 nM.
`Cc1cccc(-c2nccc(Nc3ccnc(Nc4ccc(N5CCNCC5)c(CC(=O)O[C@@H]5CCN(C)C5)c4)n3)n2)n1` [Compound 499, [(3R)-1-methylpyrrolidin-3-yl] 2-[5-[[4-[[2-(6-methyl-2-pyridyl)pyrimidin-4-yl]amino]pyrimidin-2-yl]amino]-2-piperazin-1-yl-phenyl]acetate]: the IC50 in assay [1] was 200 to 1260 nM. In addition, the Ki in assay [2] was 0.0398 to 0.316 nM.
With `Cc1cccc(-c2nccc(Nc3ccnc(Nc4csc(N)c4)n3)n2)n1` [Compound 500, N2-(5-amino-3-thienyl)-N4-[2-(6-methyl-2-pyridyl)pyrimidin-4-yl]pyrimidine-2,4-diamine], the IC50 in assay [1] is 25.1 to 158 nM. The Ki in assay [2] is 0.398 to 3.16 nM.
Regarding `Cc1cccc(-c2nccc(Nc3ccnc(Nc4ccc(CN5CC(N(C)C)C5)cc4)n3)n2)n1` [Compound 501, N2-[4-[[3-(dimethylamino)azetidin-1-yl]methyl]phenyl]-N4-[2-(6-methyl-2-pyridyl)pyrimidin-4-yl]pyrimidine-2,4-diamine], the IC50 in assay [1] is 25.1 to 158 nM. Moreover, the Ki in assay [2] was 0.0398 to 0.316 nM.
Take `Cc1cccc(-c2nccc(Nc3ccnc(Nc4ccc(N5CCOCC5)cc4F)n3)n2)n1` [Compound 502, N2-(2-fluoro-4-morpholino-phenyl)-N4-[2-(6-methyl-2-pyridyl)pyrimidin-4-yl]pyrimidine-2,4-diamine]: the IC50 in assay [1] was 25.1 to 158 nM. In assay [2], the Ki was 3.98 to 31.6 nM.
